Laboratory results taken from ChEMBL document CHEMBL1126754, “Hydroxyurea derivatives as hypoglycemic agents” (1993).

Assays:
3T3-L1 [1] = assay: Effect on GLUT 1 glucose transporter expression in 3T3-L1 adipocytes at dose of 30 uM; format: functional, Mus musculus
3T3-L1 [2] = assay: Effect on GLUT 1 glucose transporter expression in 3T3-L1 adipocytes at dose of 0.3 uM; format: functional, Mus musculus
3T3-L1 [3] = assay: Effect on GLUT 1 glucose transporter expression in 3T3-L1 adipocytes at dose of 3 uM; format: functional, Mus musculus
Mus musculus [4] = assay: In vivo ability to lower blood glucose in the ob/ob mouse model at a dose of 10 mg/kg; format: functional
Mus musculus [5] = assay: In vivo ability to lower blood glucose in the ob/ob mouse model at a dose of 5 mg/kg; format: functional
Mus musculus [6] = assay: In vivo ability to lower blood glucose in the ob/ob mouse model at a dose of 1 mg/kg; format: functional
Mus musculus [7] = assay: In vivo ability to lower blood glucose in the ob/ob mouse model at a dose of 25 mg/kg; format: functional

Cc1oc(-c2ccccc2)nc1CCOc1ccc(CN(O)C(N)=O)cc1
Effect (3T3-L1 [1]): 140.6%
Effect (3T3-L1 [2]): 97%
Effect (3T3-L1 [3]): 109.8%

COC(=O)ON(Cc1ccc(OCCc2nc(-c3ccccc3)oc2C)cc1)C(N)=O
Effect (3T3-L1 [1]): 164.5%
Glucose normalisation (Mus musculus [4]): 77%
Glucose normalisation (Mus musculus [5]): 80%
Glucose normalisation (Mus musculus [6]): 28%
Effect (3T3-L1 [2]): 90.5%
Effect (3T3-L1 [3]): 113%
Glucose normalisation (Mus musculus [7]): 100%

Cc1oc(-c2ccccc2)nc1CCOc1ccc(Cn2oc(=O)[nH]c2=O)cc1
Effect (3T3-L1 [1]): 142.3%
Glucose normalisation (Mus musculus [4]): 100%
Glucose normalisation (Mus musculus [6]): 45%
Effect (3T3-L1 [2]): 109.7%
Effect (3T3-L1 [3]): 130.6%
Glucose normalisation (Mus musculus [7]): 97%

CC1(COc2ccc(CC3SC(=O)NC3=O)cc2)CCCCC1 (configuration not stated) [CIGLITAZONE]
Effect (3T3-L1 [1]): 151.3%

CNC(=O)N(Cc1ccc(OCCc2nc(-c3ccccc3)oc2C)cc1)OC(=O)OC
Glucose normalisation (Mus musculus [5]): 25%

CCCCCc1ccc(C(=O)N[C@H]2N=C(c3ccccc3)c3ccccc3N(C)C2=O)cc1
Glucose normalisation (Mus musculus [5]): 50%

CCOC(=O)ON(Cc1ccc(OCCc2nc(-c3ccccc3)oc2C)cc1)C(N)=O
Glucose normalisation (Mus musculus [5]): 52%

CNC(=O)N(O)Cc1ccc(OCCc2nc(-c3ccccc3)oc2C)cc1
Glucose normalisation (Mus musculus [5]): 25%

Cc1oc(-c2ccccc2)nc1CCOc1ccc(CN(OC(=O)Oc2ccccc2)C(N)=O)cc1
Glucose normalisation (Mus musculus [5]): 25%
